# Test results published in the supplement of paper PMC10307832.
# Tests used:
# Assay in all cases: relative viability (nuclei count vs DMSO), 5 days (fraction); higher = more cells survive
# [1] = compound: CCN1C(=O)C2=CC(=C(N=C2N(C1=O)C3CC3)N)C(=O)N + CC(=O)c1c(C)c2cnc(Nc3ccc(N4CCNCC4)cn3)nc2n(C2CCCC2)c1=O [Palbociclib] (partner 0.5 µM)
# Summary of the method: (§1)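 Relative viability equals treated-well nuclei counts divided by vehicle-well nuclei counts. Counts came from 4× images of lung cancer cell lines grown in 1536-well plates for 5 days after pin-tool dosing on the day after seeding. Dosing used one drug alone or a fixed anchor-drug dose plus five library-drug doses (not always all listed) in √10 steps, and values are medians of duplicate plates.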
# [2] = compound: CCN1C(=O)C2=CC(=C(N=C2N(C1=O)C3CC3)N)C(=O)N + O=C(c1cc(Cc2n[nH]c(=O)c3ccccc23)ccc1F)N1CCN(C(=O)C2CC2)CC1 [Olaparib] (partner 8 µM)
# Summary of the method: as §1
# [3] = compound: CCN1C(=O)C2=CC(=C(N=C2N(C1=O)C3CC3)N)C(=O)N + CCNC(=O)c1noc(-c2cc(C(C)C)c(O)cc2O)c1-c1ccc(CN2CCOCC2)cc1 [Luminespib] (partner 0.01 µM)
# Summary of the method: as §1
# [4] = compound: CCN1C(=O)C2=CC(=C(N=C2N(C1=O)C3CC3)N)C(=O)N + NC(=O)Nc1cc(-c2cccc(F)c2)sc1C(=O)N[C@H]1CCCNC1 [AZD7762] (partner 0.2 µM)
# Summary of the method: as §1
# [5] = compound: CCN1C(=O)C2=CC(=C(N=C2N(C1=O)C3CC3)N)C(=O)N + C[C@]1(O)C[C@@H](c2nc(-c3ccc4ccc(-c5ccccc5)nc4c3)c3c(N)nccn32)C1 [Linsitinib] (partner 1 µM)
# Summary of the method: as §1
Cell Line,relative viability ([1]; first compound 0.253 µM),relative viability ([1]; first compound 0.8 µM),relative viability ([1]; first compound 2.53 µM),relative viability ([1]; first compound 8 µM),relative viability ([2]; first compound 0.253 µM),relative viability ([2]; first compound 0.8 µM),relative viability ([2]; first compound 2.53 µM),relative viability ([2]; first compound 8 µM),relative viability ([3]; first compound 0.253 µM),relative viability ([3]; first compound 0.8 µM),relative viability ([3]; first compound 2.53 µM),relative viability ([3]; first compound 8 µM),relative viability ([4]; first compound 0.253 µM),relative viability ([4]; first compound 2.53 µM),relative viability ([4]; first compound 8 µM),relative viability ([5]; first compound 0.253 µM),relative viability ([5]; first compound 0.8 µM),relative viability ([5]; first compound 2.53 µM),relative viability ([5]; first compound 8 µM),relative viability ([4]; first compound 0.8 µM)
NCI-H647,0.434,0.356,0.328,0.355,0.56,0.484,0.586,0.741,0.16,0.129,0.18,0.14,0.537,0.547,0.581,1.11,0.995,1.08,1.09,–
NCI-H650,0.363,0.299,0.342,0.334,0.437,0.39,0.296,0.445,0.66,0.821,0.712,0.78,1.14,0.999,1.3,0.949,0.636,0.957,0.697,0.781
NCI-H727,0.642,0.616,0.605,0.553,0.81,0.705,0.539,0.774,0.238,0.309,0.394,0.321,0.61,0.726,0.577,0.297,0.354,0.282,0.272,0.534
NCI-H838,0.251,0.216,0.215,0.213,0.737,0.764,0.746,0.722,0.262,0.334,0.214,0.336,0.908,0.961,0.908,1.06,0.895,0.974,0.99,0.951
NCI-H1355,0.418,0.358,0.396,0.395,0.8,0.702,0.759,0.721,0.652,0.887,0.761,0.753,0.798,0.756,0.691,0.846,0.891,0.808,0.687,0.821
NCI-H1395,0.707,0.694,0.603,0.578,0.43,0.481,0.457,0.491,0.711,0.599,0.747,0.619,0.42,0.428,0.397,1.13,0.888,0.974,1.13,0.388
NCI-H1437,0.337,0.323,0.315,0.245,0.684,0.637,0.622,0.585,1.1,1.06,1.1,1.16,1.03,1.17,1.14,0.929,1.04,1.01,1.11,1.09
NCI-H1651,0.471,0.489,0.512,0.501,0.223,0.177,0.202,0.186,0.856,0.813,0.874,0.885,0.463,0.442,0.399,0.953,1.1,0.902,1.04,0.434
NCI-H1666,0.683,0.654,0.629,0.65,0.719,0.724,0.856,0.737,–,1.02,1.07,1.05,0.888,0.909,0.84,0.805,0.766,0.792,0.779,0.824
NCI-H1734,0.346,0.328,0.363,0.36,0.672,0.695,0.579,0.675,0.67,0.215,0.191,0.233,0.514,0.51,0.566,0.837,0.849,0.852,0.884,0.543
NCI-H1755,0.443,0.453,0.436,0.44,0.908,0.872,0.831,0.843,0.455,0.412,0.528,0.51,0.522,0.408,0.533,1.02,0.997,1.01,0.942,0.496
NCI-H1792,0.674,0.631,0.668,0.653,0.44,0.387,0.292,0.667,0.586,0.4,0.541,0.419,0.779,0.693,0.508,0.551,0.624,0.59,0.559,0.624
NCI-H1793,0.258,0.322,0.27,0.3,0.921,0.731,0.851,0.875,–,0.183,0.177,0.15,0.409,0.649,0.501,0.656,0.944,–,0.956,0.408
NCI-H1915,0.531,0.508,0.493,0.526,0.271,0.284,0.261,0.286,0.852,0.775,0.873,0.892,0.722,0.712,0.594,1.09,1.1,1.08,1.06,0.7
NCI-H1944,0.421,0.324,0.33,0.365,0.4,0.411,0.374,0.437,0.795,0.711,0.618,0.723,0.541,0.528,0.487,1.19,1.16,1.02,1.18,0.479
NCI-H1975,0.564,0.623,0.602,0.489,0.747,0.82,0.734,0.785,0.167,0.283,0.222,0.276,0.758,0.83,0.7,0.981,0.955,0.882,1.04,0.622
